Reference: patent US20150344407A1, “FENDILINE DERIVATIVES AND METHODS OF USE THEREOF” (THE BOARD OF REGENTS OF THE UNIVERSITY OF TEXAS SYSTEM, priority 2012, published 2015)

What was measured:
[1] = system: phosphorylated ERK, a protein activated downstream of K-ras; test: Western immunoblotting for pERK (inhibition of ERK activation); type: cell-based, canine; conditions: Canis lupus familiaris; 4 μM compound, 48 hours, MDCK cells stably expressing GFP-tagged K-rasG12V; whole cell lysates; normalized to vehicle-treated control; read-out: % Inhibition of ERK activation when treated with 4 μM compound
Experimental: (§1) To determine the effect of compounds on localization of K-ras, Mardine Darby canine kidney epithelial (MDCK) cells stably expressing GFP-tagged K-rasG12V (oncogenic K-ras) grown on cover slips were treated with vehicle or compound (4 μM) for 48 hours and fixed with 4% paraformaldehyde. The coverslips were mounted in Mowiol and imaged by confocal microscopy (Nikon A1) using a 60× objective. Images were analyzed by ImageJ software. Densitometric analysis was performed on images to determine the degree of K-ras mislocalization. To determine the effect of compounds on K-ras function, MDCK cells stably expressing GFP-tagged K-rasG12V were treated with vehicle or compound (4 μM) for 48 hours. Following treatment, whole cell lysates were prepared and subjected SDS-PAGE and western blotting to quantify the level of phosphorylated ERK, a protein activated downstream of K-ras. All calculations were normalized to vehicle-treated control.
Western Immunoblotting for pERK: 2×10^5 cells/well were seeded in 6-well cell culture plates. 24 h after seeding, fresh medium containing 1% vehicle (DMSO) or 4 μM test compound (1:100 dilution, such that DMSO was 1%) was added and incubated for 48 h. Cells were lysed in Buffer B (50 mM Tris [pH 7.5], 75 mM NaCl, 25 mM NaF, 5 mM MgCl2, 5 mM EGTA, 1 mM dithiothreitol, 100 μM NaVO4, 1% Nonidet P-40 plus protease inhibitors). SDS-PAGE and immunoblotting with the anti-phospho-p44/42 mitogen-activated protein kinase (MAPK) (ERK1/2) antibody was performed using 20 μg of each whole cell lysate. Signal was detected by enhanced chemiluminescence (SuperSignal; Pierce, Thermo Fisher Scientific, Rockford, Ill.) and imaged by FluorChemQ (Alpha Inotech, San Leandro, Calif.). Quantification of intensities was performed using FluorChemQ software. Results were normalized to vehicle-treated control.

[2] = target: T1, GFP-tagged K-rasG12V (oncogenic K-ras) in MDCK cells (Homo sapiens, UniProt P01116, G12V); test: K-ras mislocalization, confocal fluorescence microscopy with densitometric analysis; type: cell-based, canine; conditions: 48 hours, MDCK cells stably expressing GFP-tagged K-rasG12V, normalized to vehicle-treated control; for inhibition at 4 µM: 4 μM compound, read-out: % Mislocalization of K-ras when treated with 4 μM compound
T1 construct: mGFP-tagged full length oncogenic mutant K-Ras (GFP-K-RasG12V); expressed in transfected cells
Experimental: FIGS. 1 & 2—Representative images showing degree of K-ras mislocalization with compound treatment (images corresponds with column 3 of Table 2). MDCK cells stably expressing GFP-tagged K-rasG12V were treated with vehicle or compound (4 μM) for 48 hours and fixed with 4% paraformaldehyde. The coverslips were mounted in Mowiol and imaged by confocal microscopy (Nikon A1) using a 60× objective. The number above each image corresponds the fendiline derivative code.
as §1
Fluorescence microscopy: 2×10^5 or 1×10^5 cells/well were seeded in 6- or 12-well cell culture plates, respectively, containing glass coverslips. 24 h after seeding, fresh medium containing 1% vehicle (Dimethyl sulfoxide, DMSO) or 4 μM test compound (1:100 dilution, such that DMSO was 1%) was added and incubated for 48 h, following which the cells were fixed with 4% paraformaldehyde and coverslips were mounted in Mowiol. Cells were imaged in the GFP wavelength (488 nm) using a confocal microscope (Nikon A1) with 60× objective. Images were saved in tagged imaged file format (tiff) and analyzed by ImageJ software. The densitometric ratio of plasma membrane localized K-Ras versus total K-Ras was calculated and normalized to vehicle-treated control.

MPanc-96 cells = test: Proliferation assay, pancreatic cancer cell line MPanc-96; type: cell-based; conditions: MPANC96; 72 h, CyQUANT; oncogenic mutant K-Ras
Excerpt: (§2) FIG. 5A-5E—Concentration-response curves of 42, 68, 70, 72 and 73 on proliferation of five pancreatic cancer cell lines. BxPC-3 expresses wild type K-Ras, whereas the others express oncogenic mutant K-Ras. […] EC50 values for their inhibitory effect are tabulated. ND means that the EC50 value could not be determined within the dose range tested. See also Table 5.
(§3) Cell lines: Madine Darby Canine Kidney epithelial cells (MDCK) stably co-expressing mGFP-tagged full length oncogenic mutant K-Ras (GFP-K-RasG12V) and mCherry-tagged to the amino acids 179-189 of H-RasC181S, C184S (mCherry-CAAX, localizes primarily to endomembranes) were grown in DMEM-high glucose/sodium pyruvate/10% FBS. The medium was supplemented with 1× Penicillin/Streptomycin for fluorescence microscopy assays, to avoid any microbial contamination from the test compounds added. KLE and Hec50 cells were maintained in DMEM-F-12 medium supplemented with 10% FBS. Hec-1A and Hec-1B cells were grown in McCoy's 5a medium supplemented with 10% FBS. ESS-1 cells were grown in RPMI 1640 medium supplemented with 20% FBS. MPanc96 cells were grown in DMEM supplemented with 10% FBS, MiaPaCa-2 cells in DMEM supplemented with 10% FBS and 2.5% horse serum and all other cell lines were grown in RPMI 1640 supplemented with 10% FBS. All cancer cell media were supplemented with 1× Penicillin/Streptomycin. All cell lines were grown at 37° C. with 5% CO2.
(§4) Proliferation Assay: Cells were seeded in 96-well plates. After 24 h, fresh growth medium supplemented with 0.1% vehicle (DMSO), or various concentrations of drugs was added and cells were grown for 72 h. Cell numbers were quantified using the CyQUANT® Cell Proliferation Assay Kit (Life Technologies), according to the manufacturer's protocol. Fluorescence measurement was used as a measure of live cell number.
(§5) Based upon the concentration-response curves of five different compounds (42, 68, 70, 72, and 73) were tested for their effects on cell proliferation of five different pancreatic cell lines. These experiments were carried out as described in the Methods and Materials section.

Hec50 cells = test: Proliferation assay, endometrial cancer cell line Hec50; type: cell-based; conditions: 72 h, CyQUANT; Hec50 expresses oncogenic mutant K-Ras
Excerpt: (§6) FIG. 4A-4E—Concentration-response curves of 42, 68, 70, 72 and 73 on proliferation of five endometrial cancer cell lines. KLE and ESS-1 express wild type K-Ras and Hec-1A, Hec-1B and Hec50 express oncogenic mutant K-Ras. […] EC50 values for their inhibitory effect are tabulated. ND means that the EC50 value could not be determined within the dose range tested. See also Table 4.
as §3, §4
(§7) Based upon the concentration-response curves of five different compounds (42, 68, 70, 72, and 73) were tested for their effects on cell proliferation of five different endometrial cell lines. These experiments were carried out as described in the Methods and Materials section.

HPAC cells = test: Proliferation assay, pancreatic cancer cell line HPAC; type: cell-based; conditions: Homo sapiens, 72 h, CyQUANT, oncogenic mutant K-Ras
Excerpt: as §2, §3, §4, §5

MiaPaCa-2 cells = test: Proliferation assay, pancreatic cancer cell line MiaPaCa-2; type: cell-based; conditions: Homo sapiens, MIA PaCa-2; 72 h, CyQUANT; oncogenic mutant K-Ras
Excerpt: as §2, §3, §4, §5

Hec-1A cells = test: Proliferation assay, endometrial cancer cell line Hec-1A; type: cell-based; conditions: Homo sapiens; 72 h, CyQUANT; Hec-1A expresses oncogenic mutant K-Ras
Excerpt: as §6, §3, §4, §7

Hec-1B cells = test: Proliferation assay, endometrial cancer cell line Hec-1B; type: cell-based; conditions: Homo sapiens; 72 h, CyQUANT; Hec-1B expresses oncogenic mutant K-Ras; ND = EC50 could not be determined within the dose range tested
Excerpt: as §6, §3, §4
Based upon the concentration-response curves of five different compounds (42, 68, 70, 72, and 73) were tested for their effects on cell proliferation of five different endometrial cell lines. […]

MOH cells = test: Proliferation assay, pancreatic cancer cell line MOH; type: cell-based; conditions: 72 h, CyQUANT, oncogenic mutant K-Ras
Excerpt: as §2, §3, §4, §5

chemotaxis = test: Inhibition of chemotaxis; conditions: preliminary data

Row | Structure (SMILES) | inhibition at 4 µM [2] [%] | inhibition at 4 µM [1] [%] | further results
1 | COC(=O)[C@H](NC/C=C/c1ccccc1)c1ccccc1 [Compound 40, (R)-methyl 2-(cinnamylamino)-2-phenylacetate] | 9.46 | 11 | 
2 | COC(=O)[C@H](NCC=C(c1ccccc1)c1ccccc1)c1ccccc1 [Compound 42, (R)-methyl 2-((3,3-diphenylallyl)amino)-2-phenylacetate] | 50 | 44 | EC50 (MPanc-96 cells): 1120 nM; EC50 (Hec50 cells): 423 nM; EC50 (HPAC cells): 944 nM; EC50 (MiaPaCa-2 cells): 2410 nM; EC50 (Hec-1A cells): 7.39 nM; EC50 (Hec-1B cells): 524 nM; EC50 (MOH cells): 1040 nM
3 | COC(=O)[C@@H](NCC=C(c1ccccc1)c1ccccc1)c1ccccc1 [Compound 43, (S)-methyl 2-((3,3-diphenylallyl)amino)-2-phenylacetate] | 30.1 | 38.4 | 
4 | CC[C@@H](NCC=C(c1ccccc1)c1ccccc1)c1ccccc1 [Compound 46, (R)-3,3-diphenyl-N-(1-phenylpropyl)prop-2-en-1-amine] | 37.5 | 54 | 
5 | C[C@@H](NC/C=C(/c1ccccc1)c1ccc([N+](=O)[O-])cc1)c1ccccc1 [Compound 49, (R,Z)-3-(4-nitrophenyl)-3-phenyl-N-(1-phenylethyl)prop-2-en-1-amine] | 20.1 | 36.8 | 
6 | C[C@@H](NC/C=C(\c1ccccc1)c1ccc([N+](=O)[O-])cc1)c1ccccc1 [Compound 55, (R,E)-3-(4-nitrophenyl)-3-phenyl-N-(1-phenylethyl)prop-2-en-1-amine] | 12.3 | -36.6 | 
7 | COc1ccc([C@@H](C)N(CC=C(c2ccccc2)c2ccccc2)CC=C(c2ccccc2)c2ccccc2)cc1 [Compound 68, (R)-N-(3,3-diphenylallyl)-N-(1-(4-methoxyphenyl)ethyl)-3,3-diphenylprop-2-en-1-amine] |  |  | EC50 (MPanc-96 cells): 912 nM; EC50 (Hec50 cells): 1.58 nM; EC50 (HPAC cells): 105 nM; EC50 (MiaPaCa-2 cells): 1150 nM; EC50 (Hec-1A cells): 211 nM; EC50 (MOH cells): 931 nM
8 | C[C@H](c1cccc(Cl)c1)N(CC=C(c1ccccc1)c1ccccc1)CC=C(c1ccccc1)c1ccccc1 [Compound 70, (R)—N-(1-(3-chlorophenyl)ethyl)-N-(3,3-diphenylallyl)-3,3-diphenylprop-2-en-1-amine] |  |  | EC50 (MPanc-96 cells): 814 nM; EC50 (Hec50 cells): 3310 nM; EC50 (HPAC cells): 220 nM; EC50 (MiaPaCa-2 cells): 1500 nM; EC50 (Hec-1A cells): 38.2 nM; EC50 (Hec-1B cells): 10700 nM; EC50 (MOH cells): 663 nM
9 | C(CN(CC=C(c1ccccc1)c1ccccc1)[C@@H]1CCc2ccccc21)=C(c1ccccc1)c1ccccc1 [Compound 73, (R)—N,N-bis(3,3-diphenylallyl)-2,3-dihydro-1H-inden-1-amine] |  |  | EC50 (MPanc-96 cells): 239 nM; EC50 (Hec50 cells): 412 nM; EC50 (HPAC cells): 346 nM; EC50 (MiaPaCa-2 cells): 894 nM; EC50 (Hec-1A cells): 19.6 nM; EC50 (Hec-1B cells): 330 nM; EC50 (MOH cells): 616 nM
10 | CC(NCCC(c1ccccc1)c1ccccc1)c1ccccc1 (stereo not shown) [Fendiline, 3,3-diphenyl-N-(1-phenylethyl)propan-1-amine] |  | 7.37 | Inhibition of chemotaxis (chemotaxis): effective at inhibiting chemotaxis at picomolar and nanomolar concentrations; % Mislocalization of K-ras when treated with 4 μM compound [2]: 20.53%

Further lines, with some results ahead:

Row | inhibition at 4 µM [2] [%] | Structure (SMILES) | inhibition at 4 µM [1] [%] | further results
11 | 38.1 | C[C@@H](NCC=C(c1ccccc1)c1ccccc1)c1ccc(Br)cc1 [Compound 44, (R)—N-(1-(4-bromophenyl)ethyl)-3,3-diphenylprop-2-en-1-amine] | 38.1 | 
12 | 50 | C[C@@H](NCC=C(c1ccccc1)c1ccccc1)c1ccc(F)cc1 [Compound 45, (R)—N-(1-(4-fluorophenyl)ethyl)-3,3-diphenylprop-2-en-1-amine] | 43.5 | 
13 | 34 | C[C@@H](NCC=C(c1ccccc1)c1ccccc1)c1ccc([N+](=O)[O-])cc1 [Compound 47] | 70.6 | 
14 | 28.2 | C[C@@H](NCC=C(c1ccccc1)c1ccccc1)c1ccc(N)cc1 [Compound 48, (R)-4-(1-((3,3-diphenylallyl)amino)ethyl)aniline] | 53.5 | 
15 | 6.61 | C[C@@H](NC/C=C(/c1ccccc1)c1ccc(N)cc1)c1ccccc1 [Compound 50, (R,Z)-4-(1-phenyl-3-((1-phenylethyl)amino)prop-1-en-1-yl)aniline] | 22.6 | 
16 | 17.3 | C[C@@H](NC/C=C(\c1ccccc1)c1ccc(N)cc1)c1ccccc1 [Compound 56, (R,E)-4-(1-phenyl-3-((1-phenylethyl)amino)prop-1-en-1-yl)aniline] | -191 | 
17 | 12.7 | COC(=O)[C@H](NCC=C(c1ccccc1)c1ccccc1)c1ccc(F)cc1 [Compound 57, (R)-methyl 2-((3,3-diphenylallyl)amino)-2-(4-fluorophenyl)acetate] | -105 | 
18 | 5.05 | C[C@@H](NCC=C1c2ccccc2C=Cc2ccccc21)c1ccc(F)cc1 [Compound 58, (R)—N-(2 (5H-dibenzo[a,d][7]annulen-5-ylidene)ethyl)-1-(4-fluorophenyl) ethanamine] | -78.7 | 
